Where “and” joins values, the source holds several entries; their conditions need not be identical. Identical values can stand only once.
Legend:
[1] = pH of lyophilized melphalan after reconstitution, dilution in normal saline solution and neutralization with trisodium citrate; assay type: physicochemical; conditions: 5 mg/ml of melphalan hydrochlorate with 2.5 molecules of hydrogen chloride per melphalan mol
Experimental: A vial containing the solid composition of lyophilized melphalan was reconstituted with 3.2 ml of normal saline solution, producing a melphalan solution at 5.40 mg/ml of pH 1.80. An aliquot of 0.8 ml was taken and added with another of 4.2 ml of normal saline solution, producing 0.86 mg/ml of pH 2.33. It was neutralized with 0.20 ml of a solution of 100 mg/ml of trisodium citrate dihydrate, producing a final pH 5.44.
A vial containing the solid composition of lyophilized melphalan was reconstituted with 3.2 ml of normal saline solution, producing a melphalan solution at 6.84 mg/ml of pH 2.20. An aliquot of 0.8 ml was taken and added with another of 4.2 ml of normal saline solution, producing 1.09 mg/ml of pH 2.20. It was neutralized with 0.20 ml of a solution of 100 mg/ml of trisodium citrate dihydrate, producing a final pH of 5.59.

[2] = Solubility of melphalan in pharmaceutical organic solvents; assay type: physicochemical; conditions: for Solubility in DMSO: hydrochlorate prepared by addition of three moles of hydrochloric acid at 37%
Experimental: To investigate the possibility of elaborating malphalan lyophilizates from pharmaceutical organic solvents, it was determined that base melphalan as well as its hydrochlorate are not soluble in terbutylic alcohol. Instead, even though base malphalan is not soluble in DMSO, its hydrochlorate is soluble up to close to 10% p/v, prepared by the addition of three moles of hydrochloric acid as a concentrated acid at 37%.
Base melphalan is soluble in glacial acetic acid, preferably free of acetic anhydride, in up to close to 10% p/v; likewise as melphalan hydrochlorate, mixtures of acetic acid and aqueous solution of hydrochloric acid at 37% p/p to dissolve base melphalan may also be used, or else hydrogen chloride solution in glacial acetic acid.

[3] = cited from earlier work
[4] = Stability at 25° C. of melphalan solution at 10 mg/ml in glacial acetic acid, purity by HPLC; assay type: physicochemical
Experimental: To study stability at 25° C. of a melphalan solution at 10 mg/ml in glacial acetic acid in the absence of hydrochloric acid, 830 mg base melphalan Lot 20-01-2010 were used and the results of the following table were obtained. This solution is not comprised in the present invention, it is only introduced with the aim of comparing this option without hydrochloric acid presenting higher concentration of impurities than the composition of lyophilized melphalan on the invention.

[5] = Purity by HPLC of melphalan lyophilizates vs. their API (degradation on lyophilization)
Experimental: Purity determinations of melphalan in its different compositions were analyzed by HPLC applying the method Pharmaeuropa, Vol 21, No. 3, July 2009, pages 425-28, for the following examples:
Simultaneously, the melphalan solution was filtered and measured in doses to 10 mg/ml in glacial acetic acid with 3 moles of hydrochloric acid from hydrochloric acid at 37% w/we, which used base melphalan Lot 20-01-2010, in 5 ml vials of the tube flask type, 20 mm mouth, containing 2 ml solution, and it was lyophilized in a Virtis Advantage Lyophilizer, freezing at −50° C. for 5 hours, starting vacuum at the same temperature, then bringing the shelf to −20° C., then to 0° C. and finally drying at 5° C., with a final vacuum of 25 microbars.
Simultaneously, the melphalan solution was filtered and measured in doses to 10 mg/ml in glacial acetic acid, which used base melphalan Lot 20-01-2010, in 5 ml vials of the tube flask type, 20 mm mouth, containing 2 ml solution, and it was lyophilized in a Virtis Advantage Lyophilizer, freezing at −50° C. for 5 hours, starting vacuum at the same temperature, then bringing the shelf to −20° C., then to 0° C. and finally drying at 25° C., with a final vacuum of 25 microbars.

[6] = API before dissolution, listed as API
[7] = API or lyophilizate, listed as API
[8] = API or lyophilizate, listed as API-Mel 143-09

## N[C@@H](Cc1ccc(N(CCCl)CCCl)cc1)C(=O)O [melphalan hydrochlorate]
[1]
  pH of an aqueous solution: approximately 1.9
[2]; listed as its hydrochlorate
  Solubility in DMSO: ~10 % p/v

## CC(O)CO (stereo not shown) [propylene glycol]
[3]; individuals with normal renal function
  Half plasma life: 5 h
[3]; rest metabolized by the liver
  Excreted by kidneys: 12-45%

## N[C@@H](Cc1ccc(N(CCCl)CCCl)cc1)C(=O)O [Melphalan, p-(bis-2-chloroethyl)-amino-L-phenylalanine]
[4]; API before dissolution
  Impurity C: 0.02 % of area
  Impurity D: 0.09 % of area
  Impurity F: 0.05 % of area
  Impurity G: 2.05 % of area
  Impurity I: 0.03 % of area
  Impurity J: 0.11 % of area
  Melphalan Purity: 97.45 % of area
  Total of Impurities: 2.55 % of area
[4]; [6]
  Max. Imp. Disposab: 0.02 (TRR 0.81) % of area and 0.04 % of area
  Other Imp. Disposab: 0.04 (TRR 1.58) % of area and 0.02 % of area
[4]; hours in solution at ambient temperature / 25° C.
  Stability in solution of 10 mg/ml in acetic acid by HPLC: perfectly stable
[5]; API or lyophilizate
  Impurity C: <0.05 % w/w
  Impurity F: <0.05 % w/w
  Impurity I: <0.05 % w/w
[5]; [7]
  Impurity D: 0.05% w/w and <0.05 % w/w
  Impurity G: 1.04% w/w and 0.97% w/w
  Impurity J: 0.05% w/w and <0.05 % w/w
  Máx. Imp. Dispos: 0.05% w/w and 0.07% w/w
  Total of Impurities: 1.19% w/w and 1.04% w/w
[5]; [8]
  Impurity D: 0.1 % w/w
  Impurity G: 0.9 % w/w
  Máx. Imp. Dispos: 0.1 % w/w
  Total of Impurities: 1.2 % w/w
[5]; from acetic acid with three moles of hydrochloric acid per mol
  Degradation of the API on non-aqueous lyophilization: lower than 0.2 % in area
[2]
  Solubility in terbutylic alcohol: not soluble
[2]; listed as base malphalan
  Solubility in DMSO: not soluble
[2]; preferably free of acetic anhydride
  Solubility in glacial acetic acid: ~10 % p/v

From patent US20130131174A1, “INJECTABLE PHARMACEUTICAL FORMULATION OF MELPHALAN” (ERIOCHEM, priority 2010, published 2013)
